{
  "source": "paper PMC9603521",
  "about": "“WYBQ-4: a New Bactericidal Agent against Methicillin-Resistant Staphylococcus aureus” (Microbiology Spectrum, 2022)",
  "key": {"MSSA 29213 [1]": {"system": "MSSA 29213", "assay": "Mouse intramuscular (thigh) infection model", "format": "in vivo", "details": "MSSA 29213-infected mice; 300 mg/kg subcutaneous; 24 h after infection", "method": "(§1) The therapeutic effects of WYBQ-4 on thigh infections induced by MRSA USA300 and MSSA 29213 in mice (6-week-old female C57BL/6J mice) were evaluated. […] Mice were infected by intramuscular injection of 0.1 mL of S. aureus culture (5 × 10^5 CFU) into the right thigh. […] Then, 24 h after infection, mice were euthanized, and the right thighs were aseptically removed, weighed, homogenized, and applied to nonresistant BHI plates for CFU counting."}, "MRSA USA300 [2]": {"system": "MRSA USA300", "assay": "Mouse intramuscular (thigh) infection model", "format": "in vivo", "details": "MRSA USA300-infected mice; 300 mg/kg subcutaneous; 24 h after infection", "method": "as §1"}, "MRSA USA300 [3]": {"system": "MRSA USA300", "assay": "Mouse lung infection model, survival", "format": "in vivo, mice", "details": "mouse pneumonia, USA300 2 × 10^8 CFU, 12-h intervals, within 72 h", "method": "The animal experiments were performed using 6-week-old male C57BL/6J mice, and the mouse model of lung infection caused by MRSA USA300 was established as previously described ([43], [44]). For the survival rate, mice (10 per group) were infected with MRSA USA300 (2 × 10^8 CFU per mouse). After 2 h of infection, mice were given WYBQ-4 via subcutaneous injection and reinjected at 12-h intervals, whereas mice were treated with ceftaroline fosamil at the same doses and served as positive controls. Mice injected with only MRSA USA300 were used as a negative control. Survival of mice was recorded within 72 h, and survival rates were calculated."}, "[4]": {"system": "methicillin-resistant Staphylococcus epidermidis (MRSE) 12228", "assay": "MIC by broth microdilution (CLSI)", "format": "cell-based"}, "PBP2a [5]": {"target": "T1, PBP2a (Staphylococcus aureus, UniProt P07944)", "T1 sequence (P07944 whole entry)": "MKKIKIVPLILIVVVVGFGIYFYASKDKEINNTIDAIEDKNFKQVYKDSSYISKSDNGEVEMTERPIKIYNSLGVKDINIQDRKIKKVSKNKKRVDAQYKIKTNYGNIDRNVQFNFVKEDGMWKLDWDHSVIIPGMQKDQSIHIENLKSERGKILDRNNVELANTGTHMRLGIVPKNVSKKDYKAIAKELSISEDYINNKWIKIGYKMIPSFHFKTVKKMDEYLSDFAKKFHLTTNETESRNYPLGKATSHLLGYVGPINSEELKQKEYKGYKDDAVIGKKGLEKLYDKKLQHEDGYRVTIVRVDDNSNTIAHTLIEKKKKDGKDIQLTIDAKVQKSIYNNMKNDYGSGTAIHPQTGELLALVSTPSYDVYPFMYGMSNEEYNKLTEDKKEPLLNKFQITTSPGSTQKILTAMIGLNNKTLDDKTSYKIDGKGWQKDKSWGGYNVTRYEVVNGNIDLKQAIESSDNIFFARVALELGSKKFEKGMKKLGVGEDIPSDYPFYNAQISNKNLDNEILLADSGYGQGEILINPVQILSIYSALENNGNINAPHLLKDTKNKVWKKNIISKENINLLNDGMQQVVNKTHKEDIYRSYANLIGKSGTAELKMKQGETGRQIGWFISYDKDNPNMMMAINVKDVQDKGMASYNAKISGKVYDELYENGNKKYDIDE", "assay": "PBP2a deacylation rate, BOCILLIN FL as reporter", "format": "biochemical, MRSA", "details": "deacylation of PBP2a", "method": "(§2) Α = A + ∆ε E (k∗ ∕ (k∗ + k∗)(1 − exp (−(k∗ + k∗)t)) + k N ∆ε Ε t (2)\n(§3) Where kn* is the pseudo-first-order rate constant for acylation by nitrocefin at the concentration (N0) employed (0.1 mM), ki* the pseudo-first-order rate constant for the reaction of PBP2a with the WYBQ-4, E0 the initial enzyme concentration (2.5 µM), and k0 the second-order rate constant of nonspecific nitrocefin hydrolysis. Second-order rate constants (ki) for acylation were calculated from a linear least-squares fit to a plot of the apparent first-order rate constants (ki*) against the concentration of WYBQ-4. All plots were linear for the concentrations of WYBQ-4 used.\n(§4) Determination of dissociation equilibrium constants (Ks) of WYBQ-4 and PBP2a The dissociation equilibrium constant (Ks) of PBP2a with WYBQ-4 were determined by the BOCILLIN method (2), as previously described. […] Samples (30 μL) were loaded onto a 10% SDS-polyacrylamide gel, which was developed and then observed using a fluorescence imager to calculate the grayscale curve. […]\n(§5) The deacylation rate constants for wild-type PBP2a were determined using BOCILLIN FL as a reporter molecule. […]\n(§6) The mixture was diluted 5 times with buffer and incubated at room temperature for different time intervals. […] Grayscale analysis was performed by imageJ and the rate constant k3 for the deacylation reaction of WYBQ-4 with PBP2a was determined based on eqn (3): […]"}, "Enterococcus faecalis": {"system": "Enterococcus faecalis", "assay": "MIC by broth microdilution (CLSI)", "format": "cell-based", "details": "compared to that against Staphylococcus"}, "MSSA 29213 [6]": {"system": "MSSA 29213", "assay": "Time-kill curve", "format": "cell-based, Staphylococcus aureus", "details": "4× MIC, at 9 h", "method": "(§7) The bactericidal activities of WYBQ-4 against MSSA 29213 and MRSA USA300 were determined in vitro. Overnight cultures were diluted to 10^6 CFU (CFU)/mL in 10 mL of fresh Mueller-Hinton broth (MHB) medium. […] After incubation at 37°C with shaking for 0 to 24 h, 100-μL samples from each time point were subcultured on MHB agar plates and incubated at 37°C for 24 h. MSSA 29213 and MRSA USA300 without WYBQ-4 were used as control groups. Colony numbers were counted to calculate the CFU, and the data were expressed as log10 CFU. Three biological replicates were performed for the experiment."}, "MRSA USA300 [7]": {"system": "MRSA USA300", "assay": "Time-kill curve", "format": "cell-based, Staphylococcus aureus", "details": "8× MIC, at 9 h", "method": "as §7"}, "PBP2a [8]": {"target": "T1, PBP2a", "assay": "Dissociation equilibrium constant (Ks) by BOCILLIN FL method", "format": "binding, MRSA", "method": "as §2, §3, §4, §5, §6"}, "Gram-negative bacteria": {"system": "Gram-negative bacteria", "assay": "MIC by broth microdilution (CLSI)", "format": "cell-based", "details": "compared to that against Staphylococcus"}, "rabbit red blood cells": {"system": "rabbit red blood cells", "assay": "Hemolytic activity", "format": "cell-based", "details": "0 to 512 μg/mL"}, "[9]": {"assay": "Acute toxicity test in mice", "format": "in vivo", "details": "intraperitoneal injection 300 mg/kg", "method": "Acute toxicity test in mice. The acute toxicity test in mice was performed according to the requirements of the Chinese Guidelines for Acute Toxicity of Chemicals (H-GPT1-1) ([42]). In brief, each group of 6 female mice (6 to 8 weeks old, weights of 18 to 20 g, BALB/c) was intraperitoneally injected with a single dose of 300, 150, or 75 mg/kg body weight of WYBQ-4. The mice were injected with PBS as a control group. Then, the poisoning symptoms, abnormal behavior, and survival of the mice in each group were observed within 72 h."}},
  "data": [
    {"smiles": "C#CCO[C@@]1(NC(=O)CSc2cccc(C)c2)C(=O)N2C(C(=O)O)=C(CSc3nnnn3C)CSC21", "note": "(stereo partly shown) [WYBQ-4]", "values": [
      {"measurement": "bacterial load in the thighs", "setting": "MSSA 29213 [1]", "value": 5.21, "unit": "log10 CFU/g"},
      {"measurement": "bacterial load in the thighs", "setting": "MRSA USA300 [2]", "value": 5.97, "unit": "log10 CFU/g"},
      {"measurement": "survival rate", "setting": "MRSA USA300 [3]; 37.5 mg/kg subcutaneous", "value": 36.67, "unit": "%"},
      {"measurement": "survival rate", "setting": "MRSA USA300 [3]; 75 mg/kg subcutaneous", "value": 70.00, "unit": "%"},
      {"measurement": "MIC", "setting": "[4]", "value": 4, "unit": "µg/mL"},
      {"measurement": "k3", "setting": "PBP2a [5]", "value": "11 ± 1.32", "unit": "s^–1 × 10^6"},
      {"measurement": "antibacterial activity", "setting": "Enterococcus faecalis", "value": "weak"},
      {"measurement": "time-dependent killing effect", "setting": "MSSA 29213 [6]", "value": "complete sterilization"},
      {"measurement": "time-dependent killing effect", "setting": "MRSA USA300 [7]", "value": "complete sterilization"},
      {"measurement": "Kd", "setting": "PBP2a [8]", "value": "28 ± 1.24", "unit": "µM"},
      {"measurement": "antibacterial activity", "setting": "Gram-negative bacteria", "value": "weak"},
      {"measurement": "hemolytic activity", "setting": "rabbit red blood cells", "value": "did not show hemolytic activity"},
      {"measurement": "acute toxicity, survival of mice", "setting": "[9]", "value": "did not affect the survival of the mice"}
    ]}
  ]
}
